Legend:
[1] = system: Beet Armyworm (Spodoptera exigua) ("BAW"); experiment: Bioassay on beet armyworm (BAW), 128-well diet tray assay; format: in vivo; details: Table ABC (FB), activity rating class, read-out: BAW (Biological Results, Insect species)
Experimental: (§1) Certain molecules disclosed in this document were tested against BAW and CEW using procedures described in the following examples. In the reporting of the results, the “BAW & CL Rating Table” was used (See Table Section). BIOASSAYS ON BAW
Bioassays on BAW were conducted using a 128-well diet tray assay. one to five second instar BAW larvae were placed in each well (3 mL) of the diet tray that had been previously filled with 1 mL of artificial diet to which 50 μg/cm^2 of the test compound (dissolved in 50 μL of 90:10 acetone-water mixture) had been applied (to each of eight wells) and then allowed to dry. Trays were covered with a clear self-adhesive cover and held at 25° C., 14:10 light-dark for five to seven days. Percent mortality was recorded for the larvae in each well; activity in the eight wells was then averaged. The results are indicated in the table entitled “Table ABC: Biological Results” (See Table Section).

[2] = system: Cabbage Looper (Trichoplusia ni) ("CL"); experiment: Bioassay on cabbage looper (CL), 128-well diet tray assay; format: in vivo; details: Table ABC (FB), activity rating class, read-out: CL (Biological Results, Insect species)
Experimental: as §1
Bioassays on CL were conducted using a 128-well diet tray assay. one to five second instar CL larvae were placed in each well (3 mL) of the diet tray that had been previously filled with 1 mL of artificial diet to which 50 μg/cm^2 of the test compound (dissolved in 50 μL of 90:10 acetone-water mixture) had been applied (to each of eight wells) and then allowed to dry. Trays were covered with a clear self-adhesive cover and held at 25° C., 14:10 light-dark for five to seven days. Percent mortality was recorded for the larvae in each well; activity in the eight wells was then averaged. The results are indicated in the table entitled “Table ABC: Biological Results” (See Table Section).

Cc1ccc(C(C)C)c(N2C(=O)CS/C2=N\C(=O)NCCc2ccc(-c3ncn(-c4ccc(OC(F)(F)F)cc4)n3)cc2F)c1 [FB8, (Z)-1-(2-fluoro-4-(1-(4-(trifluoromethoxy)phenyl)-1H-1,2,4-triazol-3-yl)phenethyl)-3-(3-(2-isopropyl-5-methylphenyl)-4-oxothiazolidin-2-ylidene)urea]
pest or weed control at 50 µg/cm2 [1]: 50 to 100%
pest or weed control at 50 µg/cm2 [2]: 50 to 100%

COc1ccc(C(C)C)c(N2C(=O)CS/C2=N\C(=O)NCCc2ccc(-c3ncn(-c4ccc(OC(F)(F)F)cc4)n3)cc2F)c1 [FB9, (Z)-1-(2-fluoro-4-(1-(4-(trifluoromethoxy)phenyl)-1H-1,2,4-triazol-3-yl)phenethyl)-3-(3-(2-isopropyl-5-methoxyphenyl)-4-oxothiazolidin-2-ylidene)urea]
pest or weed control at 50 µg/cm2 [1]: 50 to 100%
pest or weed control at 50 µg/cm2 [2]: 50 to 100%

CCc1ccccc1-n1c(=O)n(CC)s/c1=N\C(=O)NCCc1ccc(-c2ncn(-c3ccc(OC(F)(F)F)cc3)n2)cc1 [FB10, (Z)-1-(2-ethyl-4-(2-ethylphenyl)-3-oxo-1,2,4-thiadiazolidin-5-ylidene)-3-(4-(1-(4-(trifluoromethoxy)phenyl)-1H-1,2,4-triazol-3-yl)phenethyl)urea]
pest or weed control at 50 µg/cm2 [1]: 50 to 100%
pest or weed control at 50 µg/cm2 [2]: 50 to 100%

CCn1s/c(=N\C(=O)NCCc2ccc(-c3ncn(-c4ccc(OC(F)(F)F)cc4)n3)cc2)n(-c2ccc(OC)cc2C(C)C)c1=O [FB11, (Z)-1-(2-ethyl-4-(2-isopropyl-4-methoxyphenyl)-3-oxo-1,2,4-thiadiazolidin-5-ylidene)-3-(4-(1-(4-(trifluoromethoxy)phenyl)-1H-1,2,4-triazol-3-yl)phenethyl)urea]
pest or weed control at 50 µg/cm2 [1]: 0 to 50%
pest or weed control at 50 µg/cm2 [2]: 50 to 100%

CCn1s/c(=N\C(=O)NCCc2ccc(-c3ncn(-c4ccc(OC(F)(F)F)cc4)n3)cc2)n(-c2cc(F)ccc2C(C)C)c1=O [FB12, (Z)-1-(2-ethyl-4-(5-fluoro-2-isopropylphenyl)-3-oxo-1,2,4-thiadiazolidin-5-ylidene)-3-(4-(1-(4-(trifluoromethoxy)phenyl)-1H-1,2,4-triazol-3-yl)phenethyl)urea]
pest or weed control at 50 µg/cm2 [1]: 50 to 100%
pest or weed control at 50 µg/cm2 [2]: 50 to 100%

CCn1s/c(=N\C(=O)NCCc2ccc(-c3ncn(-c4ccc(OC(F)(F)F)cc4)n3)cc2)n(-c2ccc(F)cc2C(C)C)c1=O [FB13, (Z)-1-(2-ethyl-4-(4-fluoro-2-isopropylphenyl)-3-oxo-1,2,4-thiadiazolidin-5-ylidene)-3-(4-(1-(4-(trifluoromethoxy)phenyl)-1H-1,2,4-triazol-3-yl)phenethyl)urea]
pest or weed control at 50 µg/cm2 [1]: 0 to 50%
pest or weed control at 50 µg/cm2 [2]: 50 to 100%

CCn1s/c(=N\C(=O)NCCc2ccc(-c3ncn(-c4ccc(OC(F)(F)F)cc4)n3)cc2)n(-c2ccccc2C(C)C)c1=O [FB14]
pest or weed control at 50 µg/cm2 [1]: 50 to 100%
pest or weed control at 50 µg/cm2 [2]: 50 to 100%

Cc1ccc(C(C)C)c(N2C(=O)CS/C2=N\C(=O)NC2CCCCC2c2ccc(-c3ncn(-c4ccc(OC(F)(F)F)cc4)n3)cc2)c1 (centres unmarked) [FB15, (Z)-1-(3-(2-isopropyl-5-methylphenyl)-4-oxothiazolidin-2-ylidene)-3-(2-(4-(1-(4-(trifluoromethoxy)phenyl)-1H-1,2,4-triazol-3-yl)phenyl)cyclohexyl)urea]
pest or weed control at 50 µg/cm2 [1]: 50 to 100%
pest or weed control at 50 µg/cm2 [2]: 50 to 100%

Cc1ccccc1NC(=S)NC(=O)NCc1cccc(-c2ncn(-c3ccc(OC(F)(F)F)cc3)n2)c1 [FB18, 1-(o-tolylcarbamothioyl)-3-[[3-[1-[4-(trifluoromethoxy)phenyl]-1H-1,2,4-triazol-3-yl]phenyl]methyl]urea]
pest or weed control at 50 µg/cm2 [1]: 50 to 100%
pest or weed control at 50 µg/cm2 [2]: 50 to 100%

COc1ccc(NC(=S)NC(=O)NCc2cccc(-c3ncn(-c4ccc(OC(F)(F)F)cc4)n3)c2)c(C)c1 [FB19, 1-[(4-methoxy-2-methyl-phenyl)carbamothioyl]-3-[[3-[1-[4-(trifluoromethoxy)phenyl]-1H-1,2,4-triazol-3-yl]phenyl]methyl]urea]
pest or weed control at 50 µg/cm2 [1]: 50 to 100%
pest or weed control at 50 µg/cm2 [2]: 50 to 100%

CCc1ccccc1NC(=S)NC(=O)NCc1cccc(-c2ncn(-c3ccc(OC(F)(F)F)cc3)n2)c1 [FB20, 1-[(2-ethylphenyl)carbamothioyl]-3-[[3-[1-[4-(trifluoromethoxy)phenyl]-1H-1,2,4-triazol-3-yl]phenyl]methyl]urea]
pest or weed control at 50 µg/cm2 [1]: 50 to 100%
pest or weed control at 50 µg/cm2 [2]: 50 to 100%

CCc1cccc(C)c1NC(=S)NC(=O)NCc1cccc(-c2ncn(-c3ccc(OC(F)(F)F)cc3)n2)c1 [FB21, 1-[(2-ethyl-6-methyl-phenyl)carbamothioyl]-3-[[3-[1-[4-(trifluoromethoxy)phenyl]-1H-1,2,4-triazol-3-yl]phenyl]methyl]urea]
pest or weed control at 50 µg/cm2 [1]: 50 to 100%
pest or weed control at 50 µg/cm2 [2]: 50 to 100%

CC(C)c1ccccc1NC(=S)NC(=O)NCc1cccc(-c2ncn(-c3ccc(OC(F)(F)F)cc3)n2)c1 [FB22, 1-[(2-isopropylphenyl)carbamothioyl]-3-[[3-[1-[4-(trifluoromethoxy)phenyl]-1H-1,2,4-triazol-3-yl]phenyl]methyl]urea]
pest or weed control at 50 µg/cm2 [1]: 50 to 100%
pest or weed control at 50 µg/cm2 [2]: 50 to 100%

Cc1ccc(NC(=S)NC(=O)NCc2cccc(-c3ncn(-c4ccc(OC(F)(F)F)cc4)n3)c2)c(C(C)C)c1 [FB23, 1-[(2-isopropyl-4-methyl-phenyl)carbamothioyl]-3-[[3-[1-[4-(trifluoromethoxy)phenyl]-1H-1,2,4-triazol-3-yl]phenyl]methyl]urea]
pest or weed control at 50 µg/cm2 [1]: 50 to 100%
pest or weed control at 50 µg/cm2 [2]: 50 to 100%

CC(C)c1cc(F)ccc1NC(=S)NC(=O)NCc1cccc(-c2ncn(-c3ccc(OC(F)(F)F)cc3)n2)c1 [FB24, 1-[(4-fluoro-2-isopropyl-phenyl)carbamothioyl]-3-[[3-[1-[4-(trifluoromethoxy)phenyl]-1H-1,2,4-triazol-3-yl]phenyl]methyl]urea]
pest or weed control at 50 µg/cm2 [1]: 50 to 100%
pest or weed control at 50 µg/cm2 [2]: 50 to 100%

Cc1ccc(C(C)C)c(NC(=S)NC(=O)NCc2cccc(-c3ncn(-c4ccc(OC(F)(F)F)cc4)n3)c2)c1 [FB25, 1-[(2-isopropyl-5-methyl-phenyl)carbamothioyl]-3-[[3-[1-[4-(trifluoromethoxy)phenyl]-1H-1,2,4-triazol-3-yl]phenyl]methyl]urea]
pest or weed control at 50 µg/cm2 [1]: 50 to 100%
pest or weed control at 50 µg/cm2 [2]: 50 to 100%

CC(C)c1ccc(Cl)cc1NC(=S)NC(=O)NCc1cccc(-c2ncn(-c3ccc(OC(F)(F)F)cc3)n2)c1 [FB26, 1-[(5-chloro-2-isopropyl-phenyl)carbamothioyl]-3-[[3-[1-[4-(trifluoromethoxy)phenyl]-1H-1,2,4-triazol-3-yl]phenyl]methyl]urea]
pest or weed control at 50 µg/cm2 [1]: 50 to 100%
pest or weed control at 50 µg/cm2 [2]: 50 to 100%

Cc1ccccc1N1C(=O)CS/C1=N\C(=O)NCc1cccc(-c2ncn(-c3ccc(OC(F)(F)F)cc3)n2)c1 [FB27, (Z)-1-(4-oxo-3-(o-tolyl)thiazolidin-2-ylidene)-3-(3-(1-(4-(trifluoromethoxy)phenyl)-1H-1,2,4-triazol-3-yl)benzyl)urea]
pest or weed control at 50 µg/cm2 [1]: 50 to 100%
pest or weed control at 50 µg/cm2 [2]: 50 to 100%

COc1ccc(N2C(=O)CS/C2=N\C(=O)NCc2cccc(-c3ncn(-c4ccc(OC(F)(F)F)cc4)n3)c2)c(C)c1 [FB28, (Z)-1-(3-(4-methoxy-2-methylphenyl)-4-oxothiazolidin-2-ylidene)-3-(3-(1-(4-(trifluoromethoxy)phenyl)-1H-1,2,4-triazol-3-yl)benzyl)urea]
pest or weed control at 50 µg/cm2 [1]: 50 to 100%
pest or weed control at 50 µg/cm2 [2]: 50 to 100%

Source: patent US9783532B2, “Molecules having certain pesticidal utilities, and intermediates, compositions, and processes related thereto” (Dow AgroSciences LLC, priority 2013, dated 2017)
